# Conditions: not given
SMILES,melting point,log10 vapour pressure (mmHg),ready biodegradability,boiling point,log10 Henry constant (atm·m³/mol),log10 Koc (L/kg),log10 biodegradation half-life (days),log10 Koa
CCOc1ccc(C(N)=O)cc1,209 °C,,,,,,,
CN=C(O)Oc1cccc(C)c1,76.5 °C,-2.97,not readily biodegradable,,,,,
CC(C)ON=O,,,,40 °C,,,,
CCC(CO)O[N+](=O)[O-] (centres undefined),,,,,-6.78,,,
COC(=O)c1cc(Oc2ccc(C(F)(F)F)cc2Cl)ccc1[N+](=O)[O-],,-7.12,,,,,,
c1ccc2ncccc2c1,-14.8 °C,-1.22,readily biodegradable,237 °C,,3.1,,
CN1C2CCC1CC(=O)C2,43 °C,,,227 °C,,,,
CCO[Si](CC)(OCC)OCC,,,,158 °C,,,,
NC(=O)C(N)=O,,-7.2,,,,,,
COC(=O)C(C)C,-84.7 °C,1.69,,92.5 °C,,,,
CC(=O)NC(=O)NC(C)=O,154 °C,,,,,,,
O=[N+]([O-])/N=C1\NCCN1Cc1ccc(Cl)nc1,144 °C,,,,,,,
Cc1cc(C)c(C)cc1C,79.3 °C,-0.277,,197 °C,,3.12,0.845,
CCCCCCCCO,-15.5 °C,-1.1,readily biodegradable,195 °C,-4.61,1.56,,6.03
O=C(c1ccccc1)c1cccc([N+](=O)[O-])c1,95 °C,,,,,,,
CCCCCCCCCCC,-25.6 °C,-0.385,readily biodegradable,196 °C,,,0.845,
CCCCCCCCOC(=O)CCCCCCCCC(=O)OCCCCCCCC,,,readily biodegradable,,,,,
CC1(C)[C@H](C(=O)O)CC[C@]1(C)C(=O)O,189 °C,,,,,,,
OCCCc1cccnc1,,,,284 °C,,,,
COc1ccc2nc(N)sc2c1,166 °C,,,,,,,

SMILES,melting point,log10 vapour pressure (mmHg),ready biodegradability,boiling point,log10 Henry constant (atm·m³/mol),log10 Koc (L/kg),log10 biodegradation half-life (days),log10 Koa
O=C(O)C(Br)C(Br)C(=O)O (centres undefined),,,not readily biodegradable,,,,,
O=C(O)c1ccccc1-c1ccc(C(F)(F)F)cc1,170 °C,,,,,,,
c1cc2c3c(c1)ccc1cccc(c13)C2,114 °C,,,353 °C,,,,
COc1ccc(Cl)c(Cl)c1Cl,69.5 °C,,,,,,,
c1ccc2c3c([nH]c2c1)CCCC3,120 °C,,,328 °C,,,,
Cc1cccc(-c2ccccc2C)c1,,,,270 °C,,,,
NC(N)=N/C(N)=N/c1ccccc1,143 °C,,,,,,,
C=C(C)CCC,,2.29,,62.1 °C,,,,
O=C(O)CNCP(=O)(O)O,190 °C,,,,,3.32,,
CN(CC(=O)O)N=O,66.5 °C,,,,,,,
C=CCOc1ccc(CC(=O)O)cc1Cl,92.5 °C,,,,,,,
C=C1C[C@H]2[C@@H]3CCC4=CC(=O)C=C[C@]4(C)[C@H]3[C@@H](O)C[C@]2(C)[C@@]1(O)C(=O)CO,234 °C,,,,,,,
Cc1ccc(C(C)(C)C)cc1,-52 °C,,readily biodegradable,190 °C,,,,
CC(C)CCC(CO)C(C)C (centres undefined),,,,211 °C,,,,
C[C@H](Oc1ccccc1)C(=O)O,118 °C,,,266 °C,,,,
C=CCc1ccc(OC=O)c(OC)c1,,,,270 °C,,,,
Cc1cc(C)c2ccccc2n1,,-2.1,,265 °C,,,,
NC(=S)N=C(N)N,172 °C,,,,,,,
COC(=O)c1ccccc1S(=O)(=O)NC(=O)N(C)c1nc(C)nc(OC)n1,141 °C,-9.41,,,-13,1.72,,
N#Cc1c(F)c(F)cc(F)c1F,34 °C,,,,,,,

# Same assay, conditions: fish
SMILES,log10 BCF,log10 biotransformation half-life (days)
Nc1ccccc1Cl,0.95,-0.61
Brc1ccc(Oc2c(Br)cccc2Br)c(Br)c1,5.88,
c1ccc2ncccc2c1,0.58,-1.33
Clc1cc(Cl)c(-c2cc(Cl)c(Cl)c(Cl)c2)cc1Cl,,2.43
O=C(O)C(Br)C(Br)C(=O)O (centres undefined),0.81,
COc1ccc(Cl)c(Cl)c1Cl,2.96,1.4
Cc1ccc(C(C)(C)C)cc1,,0.31

# Reference: the OPERA property sets (Mansouri et al. 2018)
